Data reported in PubChem BioAssay (NCI).
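In this assay, cells in 96-well plates receive the compound at five concentrations for 48 hours. Endpoints are linearly interpolated between the surrounding concentrations. GI50 = concentration required for 50% inhibition of growth. At the TGI there is no net growth.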

Tests used:
Test in all cases: DTP human tumour cell line panel, 48 h
[1] = tested on: SK-MEL-2 melanoma
[2] = tested on: UO-31 renal
[3] = tested on: SF-268 CNS
[4] = tested on: 786-0 renal
[5] = tested on: LOX IMVI melanoma
[6] = tested on: SK-OV-3 ovarian
[7] = tested on: SW-620 colon
[8] = tested on: CAKI-1 renal
[9] = tested on: NCI-H226 lung
[10] = tested on: NCI-H460 lung
[11] = tested on: RPMI-8226 leukemia
[12] = tested on: NCI-H522 lung
[13] = tested on: NCI-H23 lung
[14] = tested on: HCC-2998 colon
[15] = tested on: PC-3 prostate
[16] = tested on: OVCAR-5 ovarian
[17] = tested on: DU-145 prostate
[18] = tested on: HS 578T breast
[19] = tested on: A549 NSCLC
[20] = tested on: OVCAR-8 ovarian
[21] = tested on: SN12C renal
[22] = tested on: HT29 colon
[23] = tested on: KM12 colon
[24] = tested on: UACC-257 melanoma
[25] = tested on: IGROV1 ovarian
[26] = tested on: SNB-75 CNS
[27] = tested on: SF-295 CNS
[28] = tested on: HOP-62 NSCLC
[29] = tested on: MDA-MB-231 breast
[30] = tested on: MDA-MB-435
[31] = tested on: CCRF-CEM leukemia
[32] = tested on: OVCAR-3 ovarian
[33] = tested on: RXF 393 renal
[34] = tested on: EKVX NSCLC
[35] = tested on: HOP-92 NSCLC
[36] = tested on: COLO 205 colon
[37] = tested on: T-47D breast
[38] = tested on: HCT-15 colon
[39] = tested on: M14 melanoma
[40] = tested on: SK-MEL-28 melanoma
[41] = tested on: NCI/ADR-RES ovarian
[42] = tested on: K-562 leukemia
[43] = tested on: BT-549 breast
[44] = tested on: UACC-62 melanoma
[45] = tested on: MCF7 breast
[46] = tested on: MOLT-4 leukemia
[47] = tested on: ACHN renal
[48] = tested on: U251 CNS
[49] = tested on: TK-10 renal
[50] = tested on: SK-MEL-5 melanoma
[51] = tested on: SNB-19 CNS
[52] = tested on: SF-539 CNS
[53] = tested on: HCT-116 colon

Structure (SMILES): O=C(Cc1csc2nc(-c3ccc(Br)cc3)cn12)N/N=C/c1ccccc1O
- GI50 [1]: 21.1 µM
- TGI [1]: 53.8 µM
- GI50 [2]: 7.16 µM
- TGI [2]: > 100 µM
- GI50 [3]: > 100 µM
- TGI [3]: > 100 µM
- GI50 [4]: 4.68 µM
- TGI [4]: 17.7 µM
- GI50 [5]: 3.47 µM
- TGI [5]: 13 µM
- GI50 [6]: 12.8 µM
- TGI [6]: 30.2 µM
- GI50 [7]: 3.98 µM
- TGI [7]: 17.2 µM
- GI50 [8]: 0.397 µM
- TGI [8]: 2.4 µM
- GI50 [9]: 1.93 µM
- TGI [9]: 7.84 µM
- GI50 [10]: 15.7 µM
- TGI [10]: > 100 µM
- GI50 [11]: 2.83 µM
- TGI [11]: 20.7 µM
- GI50 [12]: 5.27 µM
- TGI [12]: 27.2 µM
- GI50 [13]: 3.43 µM
- TGI [13]: 14 µM
- GI50 [14]: 3.48 µM
- TGI [14]: 12.7 µM
- GI50 [15]: 4.28 µM
- TGI [15]: 16.7 µM
- GI50 [16]: 5.51 µM
- TGI [16]: 31.9 µM
- GI50 [17]: 2.89 µM
- TGI [17]: 13.9 µM
- GI50 [18]: 13.4 µM
- TGI [18]: 42.3 µM
- GI50 [19]: 6.22 µM
- TGI [19]: 24.2 µM
- GI50 [20]: 2.28 µM
- TGI [20]: 12.4 µM
- GI50 [21]: 3.34 µM
- TGI [21]: 16 µM
- GI50 [22]: 5.97 µM
- TGI [22]: 19.2 µM
- GI50 [23]: 3.62 µM
- TGI [23]: 16.8 µM
- GI50 [24]: 3.68 µM
- TGI [24]: 11.6 µM
- GI50 [25]: 1.04 µM
- TGI [25]: 11.5 µM
- GI50 [26]: 13 µM
- TGI [26]: 32 µM
- GI50 [27]: 2.73 µM
- TGI [27]: 9.34 µM
- GI50 [28]: 3.88 µM
- TGI [28]: 14.9 µM
- GI50 [29]: 3.27 µM
- TGI [29]: 17 µM
- GI50 [30]: 3.33 µM
- TGI [30]: 13.6 µM
- GI50 [31]: 1.81 µM
- TGI [31]: 8.41 µM
- GI50 [32]: 3.22 µM
- TGI [32]: 15.1 µM
- GI50 [33]: 37.7 µM
- TGI [33]: 62.5 µM
- GI50 [34]: 3.93 µM
- TGI [34]: 19.2 µM
- GI50 [35]: 2.1 µM
- TGI [35]: 14.6 µM
- GI50 [36]: 5.08 µM
- TGI [36]: 23.1 µM
- GI50 [37]: 5.22 µM
- TGI [37]: 23.2 µM
- GI50 [38]: 0.952 µM
- TGI [38]: 17.3 µM
- GI50 [39]: 2.58 µM
- TGI [39]: 7.77 µM
- GI50 [40]: 11.9 µM
- TGI [40]: 24.2 µM
- GI50 [41]: 2.53 µM
- TGI [41]: 6.83 µM
- GI50 [42]: 0.0372 µM
- TGI [42]: 2.95 µM
- GI50 [43]: 10.1 µM
- TGI [43]: 22.6 µM
- GI50 [44]: 2.09 µM
- TGI [44]: 7.28 µM
- GI50 [45]: 13.2 µM
- TGI [45]: > 100 µM
- GI50 [46]: 2.35 µM
- TGI [46]: 10.8 µM
- GI50 [47]: 1.57 µM
- TGI [47]: 6.3 µM
- GI50 [48]: 3.67 µM
- TGI [48]: 15.1 µM
- GI50 [49]: 2.05 µM
- TGI [49]: 8.72 µM
- GI50 [50]: 2.98 µM
- TGI [50]: 10.6 µM
- GI50 [51]: 6.8 µM
- TGI [51]: 25.4 µM
- GI50 [52]: 3.55 µM
- TGI [52]: 11.8 µM
- GI50 [53]: 3.21 µM
- TGI [53]: 12.4 µM
